Structures are written as SMILES. The source made the active and inactive calls. The calls are words filed in the database; no cut-off is given here. Where only a bound is given, the exact number is not on record here.

In general, IC50 refers to the concentration that inhibits the measured activity by half. Read a high IC50 as lower potency.

Common to all, as to type: functional, cell-based
For one assay, the system named is HCT-116. In words: Cytotoxicity against human HCT116 cells.
The subject of a further assay is MCF7. In words: Cytotoxicity against human MCF7 cells.
The next assay has as its system HeLa. In words: Cytotoxicity against human HeLa cells assessed as effect on phenotypic features by automated microscopy and image analysis.

Turning to `CCCCCCCCC[C@@H]1CC(=O)N[C@H](CC(C)C)C(=O)N[C@@H](CO)C(=O)N[C@@H]([C@@H](C)O)C(=O)N[C@H](CC(C)C)C(=O)N[C@@H]([C@@H](C)CC)C(=O)O1`, the IC50 in the assay on HCT-116 came to 22 µM; in the assay with MCF7, 3 µM.

With `CC[C@H](C)[C@@H]1NC(=O)[C@@H](CC(C)C)NC(=O)[C@H]([C@@H](C)O)NC(=O)[C@H](CO)NC(=O)[C@@H](CC(C)C)NC(=O)C[C@@H](CCCCCCCCC(C)C)OC1=O`, the half-inhibitory concentration (IC50) with HCT-116 is 17 µM.

`CC[C@H](C)[C@@H]1NC(=O)[C@@H](CC(C)C)NC(=O)[C@H]([C@@H](C)O)NC(=O)[C@H](CO)NC(=O)[C@@H](CC(C)C)NC(=O)CCC(=O)C1=O`: in the assay on HCT-116, the concentration for half-maximal inhibition (IC50) is more than 1000 µM.

Compound `CCCCCCCCCCC[C@@H]1CC(=O)N[C@H](CC(C)C)C(=O)N[C@@H](CO)C(=O)N[C@@H]([C@@H](C)O)C(=O)N[C@H](CC(C)C)C(=O)N[C@@H]([C@@H](C)CC)C(=O)O1` yielded an IC50 in the assay on HCT-116 of 18 µM. For the same compound, the outcome in the assay on HeLa was Active.

`CCCCCC/C=C\CCC[C@@H]1CC(=O)N[C@H](CC(C)C)C(=O)N[C@@H](CO)C(=O)N[C@@H]([C@@H](C)O)C(=O)N[C@H](CC(C)C)C(=O)N[C@@H]([C@@H](C)CC)C(=O)O1`: the IC50 is 28 µM in the assay on HCT-116 and 4 µM in the assay with MCF7. The result in the assay with HeLa was Active.

Regarding `CCCCCCCCCC[C@@H]1CC(=O)N[C@H](CC(C)C)C(=O)N[C@@H](CO)C(=O)N[C@@H]([C@@H](C)O)C(=O)N[C@H](CC(C)C)C(=O)N[C@@H]([C@@H](C)CC)C(=O)O1`, the 50% inhibitory concentration (IC50) in the assay with HCT-116 is 32 µM.

Turning to `CC[C@H](C)[C@@H]1NC(=O)[C@@H](CC(C)C)NC(=O)[C@H]([C@@H](C)O)NC(=O)[C@H](CO)NC(=O)[C@@H](CC(C)C)NC(=O)CCNC1=O`, in the assay on HCT-116, the IC50 was more than 1000 µM.

For `CCCCCCC[C@@H]1CC(=O)N[C@H](CC(C)C)C(=O)N[C@@H](CO)C(=O)N[C@@H]([C@@H](C)O)C(=O)N[C@H](CC(C)C)C(=O)N[C@@H]([C@@H](C)CC)C(=O)O1`, the IC50 with MCF7 worked out at 4 µM. That is a single-digit micromolar value.

For `CC[C@H](C)[C@@H]1NC(=O)[C@@H](CC(C)C)NC(=O)[C@H]([C@@H](C)O)NC(=O)[C@H](CO)NC(=O)[C@@H](CC(C)C)NC(=O)C[C@@H](CCCCCCC(C)C)OC1=O`, the IC50 amounted to 50 µM with HCT-116 and 6 µM in the assay with MCF7.

Values taken from ChEMBL document CHEMBL3576857, “Biosynthetic products from a nearshore-derived gram-negative bacterium enable reassessment of the kailuin depsipeptides” (J Nat Prod, 2015).
